We go through twelve compounds from BindingDB's records for doi:10.3109/14756369709035816 (R & D, Zambon Group, 1997).

In this assay the target is T1, Neprilysin (Rattus norvegicus, UniProt P07861).
T1 sequence (P07861 whole entry): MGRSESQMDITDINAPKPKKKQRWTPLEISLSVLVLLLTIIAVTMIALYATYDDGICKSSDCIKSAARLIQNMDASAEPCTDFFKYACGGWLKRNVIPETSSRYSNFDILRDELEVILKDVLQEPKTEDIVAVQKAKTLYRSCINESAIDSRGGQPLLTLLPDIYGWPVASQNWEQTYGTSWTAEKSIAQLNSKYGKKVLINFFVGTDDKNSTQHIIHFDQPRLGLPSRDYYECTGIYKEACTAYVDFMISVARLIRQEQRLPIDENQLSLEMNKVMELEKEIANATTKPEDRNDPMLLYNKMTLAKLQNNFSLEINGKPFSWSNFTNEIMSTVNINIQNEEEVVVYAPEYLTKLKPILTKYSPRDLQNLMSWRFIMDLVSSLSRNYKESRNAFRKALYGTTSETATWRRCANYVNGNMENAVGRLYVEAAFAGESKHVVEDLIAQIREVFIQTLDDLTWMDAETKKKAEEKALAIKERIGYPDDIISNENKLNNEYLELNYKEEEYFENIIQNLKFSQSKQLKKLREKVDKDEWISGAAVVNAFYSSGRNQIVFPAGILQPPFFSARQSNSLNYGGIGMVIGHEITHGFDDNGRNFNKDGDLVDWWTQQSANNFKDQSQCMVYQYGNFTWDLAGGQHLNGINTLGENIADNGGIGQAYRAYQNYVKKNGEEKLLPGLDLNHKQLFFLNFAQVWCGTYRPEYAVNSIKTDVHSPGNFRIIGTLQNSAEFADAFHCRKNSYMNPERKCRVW
As to the kind of experiment: Enzyme Inhibition Assay. The conditions noted are these: 25 °C. An excerpt: Enzyme inhibition assay using neutrol endopeptiase EC 3.4.24.11 (NEP).
As a reminder, the IC50 is the concentration at which inhibition is half-maximal. The low end stands for greater potency in that assay, the high end for weaker potency in that assay. In turn, `O=C(O)c1ccnc(NC(=O)C(CS)Cc2ccccc2)c1` (configuration not stated) [NEP inhibitor, 6i] displayed an IC50 of 3 nM. This counts as single-digit nanomolar.

For `O=C(Nc1ccn[nH]1)C(CS)Cc1ccccc1` (configuration not stated) [NEP inhibitor, 6q], 23 nM corresponded to half-maximal inhibition (IC50). Then `O=C(O)c1cc(NC(=O)C(CS)Cc2ccc(Cl)cc2)c[nH]1` (configuration not stated) [NEP inhibitor, 6n], with 2 nM; and `O=C(O)c1cc(NC(=O)C(CS)Cc2ccccc2)c[nH]1` (configuration not stated) [NEP inhibitor, 6m], with 2 nM. The same measure for `O=C(O)c1ccnc(NC(=O)C(CS)Cc2ccc3c(c2)OCO3)c1` (configuration not stated) [NEP inhibitor, 6j]: 5.5 nM; for `O=C(O)c1cc(NC(=O)C(CS)Cc2ccccc2)cs1` (configuration not stated) [NEP inhibitor, 6k]: 2 nM; for `CC(CS)C(=O)Nc1cncc(C(=O)O)c1` (configuration not stated) [NEP inhibitor, 6g]: 60 nM. For the compound `O=C(O)c1csc(NC(=O)C(CS)Cc2ccccc2)n1` (configuration not stated) [NEP inhibitor, 6p], the IC50 is 9 nM. Then `CN(C)C(=O)c1ccnc(NC(=O)C(CS)Cc2ccccc2)c1` (configuration not stated) [NEP inhibitor, 6r], with 5 nM.

For `O=C(Nc1ccccc1)c1ccnc(NC(=O)C(CS)Cc2ccccc2)c1` (configuration not stated) [NEP inhibitor, 6s], the midpoint of inhibition, the IC50, lay at 250 nM. The same measure for `O=C(O)c1cncc(NC(=O)C(CS)Cc2ccccc2)c1` (configuration not stated) [NEP inhibitor, 6h]: 5 nM; for `O=C(O)c1cc(NC(=O)C(CS)Cc2cccnc2)cs1` (configuration not stated) [NEP inhibitor, 6l]: 13 nM.
